Experimental data: PMC8026479 (Cancer Chemotherapy and Pharmacology, 2021)
Where two headings read alike, the source gives them in different places.

Columns and labels:
[1] = Study G1T28-02 Part 1 plasma PK (with E/P); type: in vivo, human; details: ES-SCLC + E/P; for Vd: read-out: Vz; for Tmax: range; for AUC: read-out: AUCtau (AUC0-inf, footnote a)
Text: (§1) G1T28-02 (NCT02499770) was a multicentre Phase Ib/IIa study in patients with newly diagnosed ES-SCLC [5]. Eligible patients were aged ≥ 18 years and had histologically or cytologically confirmed ES-SCLC, measurable disease per Response Evaluation Criteria in Solid Tumors (RECIST) version 1.1, an Eastern Cooperative Oncology Group (ECOG) performance status of 0–2, and adequate organ function. […] In the dose-finding Part 1 portion, blood samples for PK analysis were collected at prespecified time points on Cycle 1 Day 1 and Cycle 1 Day 3 (200 mg/m^2 cohort: all patients; 240 mg/m^2 cohort: optional).

[2] = Study G1T28-1-01 plasma PK, first-in-human single dose; type: in vivo; details: for Vd: read-out: Vz
[3] = tested on: CD45+/CD3+ lymphocytes; experiment: Ex vivo PHA-stimulated lymphocyte proliferation assay (G1T28-1-01); type: in vivo; details: Homo sapiens, 96 mg/m2, 4 h after end of infusion, read-out: maximum mean inhibition of proliferation of CD45+/CD3+ lymphocytes
Protocol: Healthy male and/or female subjects aged 18–60 years, with a body weight of ≥ 50 kg and a body mass index of 18–32 kg/m^2, were enrolled. […] Following a 1-h exposure to EdU, cells were harvested, processed, and analyzed by flow cytometry to measure the percentage of proliferation through EdU + incorporation in CD45 + /CD3 + cells (T lymphocytes).
Two bone marrow samples (one pre-dose and one at 32 h post-dose) were excluded from analysis owing to contamination with peripheral blood. c Relative percentage of total bone marrow cells in the S phase at 24 and 32 h post-trilaciclib dose (n = 10). Data shown are mean ± standard deviation.

[4] = tested on: chemotherapy-induced myelosuppression in ES-SCLC patients; experiment: Study G1T28-02 Part 1 DLTs and myelosuppression endpoints (with E/P); type: in vivo, human
Text: as §1

[5] = 200 mg/m2, Cycle 1 Day 3 (n = 8), mean
[6] = 240 mg/m2, Cycle 1 Day 1 (n = 1)
[7] = human, plasma, intravenous, 200 mg/m2, Cycle 1 Day 1 (n = 8), mean
[8] = human, plasma, intravenous, 200 mg/m2, Cycle 1 Day 3 (n = 8), mean
[9] = human, plasma, intravenous, 240 mg/m2, Cycle 1 Day 1 (n = 1)
[10] = human, plasma, intravenous, 240 mg/m2, Cycle 1 Day 3 (n = 1)
[11] = both sexes, human, plasma, iv, 6 mg/m2, healthy volunteers, single 30-min IV 6 mg/m2 (n = 3), mean
[12] = both sexes, human, plasma, iv, 12 mg/m2, healthy volunteers, single 30-min IV 12 mg/m2 (n = 3), mean
[13] = both sexes, human, plasma, iv, 24 mg/m2, healthy volunteers, single 30-min IV 24 mg/m2 (n = 3), mean
[14] = both sexes, human, plasma, iv, 49 mg/m2, healthy volunteers, single 30-min IV 49 mg/m2 (n = 3), mean
[15] = both sexes, human, plasma, iv, 96 mg/m2, healthy volunteers, single 30-min IV 96 mg/m2 (n = 6), mean
[16] = both sexes, human, plasma, healthy volunteers, single 30-min IV 6 mg/m2 (n = 3), mean
[17] = both sexes, human, plasma, healthy volunteers, single 30-min IV 96 mg/m2 (n = 6), mean
[18] = both, human, plasma, intravenous, […]2, healthy volunteers, BED cohort […]2 (n = 12), mean
[19] = both, human, plasma, intravenous, […]2, healthy volunteers, both […]2 cohorts (n = 18), mean
[20] = both, human, plasma, iv, […]2, healthy volunteers, single 30-min IV […]2 SAD cohort (n = 6), mean
[21] = healthy volunteers, single 30-min IV 6 mg/m2 (n = 3), mean
[22] = healthy volunteers, single 30-min IV 96 mg/m2 (n = 6), mean
[23] = G1T28-02 Part 1, 200 mg/m2 + E/P (n = 10)
[24] = G1T28-02 Part 1, 240 mg/m2 + E/P (n = 9)
[25] = G1T28-02 Part 1, trilaciclib total (n = 19)

## CN1CCN(c2ccc(Nc3ncc4cc5n(c4n3)C3(CCCCC3)CNC5=O)nc2)CC1 [trilaciclib]
[1]; [5]
  Cmax: 1620 ng/mL
  T1/2: 9.12 h
[1]; [6]
  AUC(0-inf): 2280 ng·h/mL
  Cmax: 1570 ng/mL
[1]; [7]
  clearance: 2500 mL/min
  Vd: 1700 L
[1]; human, plasma, intravenous, 200 mg/m2, Cycle 1 Day 1 (n = 8), mean, read-out: AUC0-inf
  AUC(0-inf): 2560 ng·h/mL
[1]; human, plasma, intravenous, 200 mg/m2, Cycle 1 Day 1 (n = 8), mean, read-out: Cmax
  Cmax: 1240 ng/mL
[1]; human, plasma, intravenous, 200 mg/m2, Cycle 1 Day 1 (n = 8)
  Tmax: 27 to 58.8 min
[1]; [8]
  clearance: 2230 mL/min
  AUC: 3110 ng·h/mL
  Vd: 1770 L
[1]; human, plasma, intravenous, 200 mg/m2, Cycle 1 Day 3 (n = 8)
  Tmax: 28.2 to 60 min
[1]; [9]
  clearance: 3850 mL/min
  half-life: 175 min
  Vd: 967 L
[1]; [10]
  clearance: 3000 mL/min
  half-life: 242 min
  AUC: 2960 ng·h/mL
  Vd: 1050 L
[1]; human, plasma, intravenous, 240 mg/m2, Cycle 1 Day 3 (n = 1), read-out: Cmax
  Cmax: 2260 ng/mL
[2]; [11]
  clearance: 3130 mL/min
  Vd: 1460 L
[2]; [12]
  clearance: 2700 mL/min
  Vd: 1770 L
[2]; [13]
  clearance: 2930 mL/min
  Vd: 2310 L
[2]; [14]
  clearance: 2930 mL/min
  Vd: 3430 L
[2]; [15]
  clearance: 2370 mL/min
  Vd: 3050 L
[2]; [16]
  Tmax: 15 min
  half-life: 319 min
[2]; both sexes, human, plasma, healthy volunteers, single 30-min IV 12 mg/m2 (n = 3), mean
  half-life: 457 min
[2]; both sexes, human, plasma, healthy volunteers, single 30-min IV 12 mg/m2 (n = 3), mean, read-out: AUC0-inf
  AUC(0-inf): 143 ng·h/mL
[2]; both sexes, human, plasma, healthy volunteers, single 30-min IV 24 mg/m2 (n = 3), mean
  half-life: 557 min
[2]; both sexes, human, plasma, healthy volunteers, single 30-min IV 24 mg/m2 (n = 3), mean, read-out: AUC0-inf
  AUC(0-inf): 279 ng·h/mL
[2]; both sexes, human, plasma, healthy volunteers, single 30-min IV 24 mg/m2 (n = 3), mean, read-out: Cmax
  Cmax: 255 ng/mL
[2]; both sexes, human, plasma, healthy volunteers, single 30-min IV 49 mg/m2 (n = 3), mean
  half-life: 774 min
[2]; [17]
  Tmax: 22.2 min
  half-life: 882 min
[2]; both, human, plasma, intravenous, […]2
  Tmax: 28.2 min
[2]; [18]
  clearance: 2100 mL/min
  Vd: 2640 L
[2]; [19]
  clearance: 2050 mL/min
  Vd: 2580 L
[2]; both, human, plasma, iv, […]2
  half-life: 870 min
[2]; [20]
  clearance: 1950 mL/min
  Vd: 2460 L
[2]; [21]
  AUC(0-inf): 66.6 ng·h/mL
  Cmax: 50.4 ng/mL
[2]; healthy volunteers, single 30-min IV 12 mg/m2 (n = 3), mean
  Cmax: 119 ng/mL
[2]; healthy volunteers, single 30-min IV 49 mg/m2 (n = 3), mean
  AUC(0-inf): 518 ng·h/mL
[2]; [22]
  AUC(0-inf): 1341 ng·h/mL
  Cmax: 910 ng/mL
[3]
  inhibition at 96 mg/m2: 37.2%
[4]; [23]
  DSN, median (SD) (footnote a): 6 (5.7) days
  Mean ANC Nadir in Cycle 1: 1.198e+09 L⁻¹
  Occurrence of ESA administrations: 2 (20.0) n (%)
  Occurrence of FN: 0 n (%)
  Occurrence of G-CSF administration: 5 (50.0) n (%)
  Occurrence of Grade 3 or 4 hematologic laboratory abnormalities: 4 (40.0) n (%)
  Occurrence of IV antibiotic use: 4 (40.0) n (%)
  Occurrence of RBC transfusions on/after Week 5: 4 (40.0) n (%)
  Occurrence of SN: 4 (40) n (%)
  Occurrence of infection SAEs: 2 (20.0) n (%)
  Occurrence of platelet transfusions: 1 (10.0) n (%)
  Occurrence of pulmonary infection SAEs: 1 (10.0) n (%)
  Patients with any event for MAHE: 6 (60.0) n (%)
  Time to first MAHE, median: 2.6 months
[4]; G1T28-02 Part 1, 200 mg/m2 + E/P, Grade 4 thrombocytopenia, and Grade 2 neutropenia resulting in Cycle 2 delay
  DLTs reported: Two DLTs
[4]; [24]
  Mean ANC Nadir in Cycle 1: 1.653e+09 L⁻¹
  Occurrence of ESA administrations: 0 n (%)
  Occurrence of FN: 0 n (%)
  Occurrence of G-CSF administration: 3 (33.3) n (%)
  Occurrence of Grade 3 or 4 hematologic laboratory abnormalities: 1 (11.1) n (%)
  Occurrence of IV antibiotic use: 1 (11.1) n (%)
  Occurrence of RBC transfusions on/after Week 5: 1 (11.1) n (%)
  Occurrence of SN: 0 n (%)
  Occurrence of infection SAEs: 1 (11.1) n (%)
  Occurrence of platelet transfusions: 0 n (%)
  Occurrence of pulmonary infection SAEs: 0 n (%)
  Patients with any event for MAHE: 6 (66.7) n (%)
  Time to first MAHE, median: 3.0 months
[4]; G1T28-02 Part 1, 240 mg/m2 + E/P, Grade 2 neutropenia resulting in Cycle 2 delay
  DLTs reported: one
[4]; [25]
  DSN, median (SD) (footnote a): 6 (5.7) days
  Mean ANC Nadir in Cycle 1: 1.414e+09 L⁻¹
  Occurrence of ESA administrations: 2 (10.5) n (%)
  Occurrence of FN: 0 n (%)
  Occurrence of G-CSF administration: 8 (42.1) n (%)
  Occurrence of Grade 3 or 4 hematologic laboratory abnormalities: 5 (26.3) n (%)
  Occurrence of IV antibiotic use: 5 (26.3) n (%)
  Occurrence of RBC transfusions on/after Week 5: 5 (26.3) n (%)
  Occurrence of infection SAEs: 3 (15.8) n (%)
  Occurrence of platelet transfusions: 1 (5.3) n (%)
  Occurrence of pulmonary infection SAEs: 1 (5.3) n (%)
  Patients with any event for MAHE: 12 (63.2) n (%)
  Time to first MAHE, median: 2.6 months
